In PMC3478977, “Enabling structure-based drug design of Tyk2 through co-crystallization with a stabilizing aminoindazole inhibitor” (BMC Structural Biology, 2012):

How the values were obtained:
human Tyk2 = biological target: T1, human Tyk2 (Homo sapiens, UniProt P29597); test: trFRET kinase activity assay, Tyk2; assay type: biochemical; settings: human Tyk2 (880–1185), 1 μM ATP, mean and standard error; read-out: IC50, inhibition of Tyk2 enzyme activity
T1 construct: human Tyk2 enzyme (residues 880–1185); expressed in Sf9 cells; His tag (cleavable); TEV site per construct name His-Tev-huTyk2 (880–1185)-Flag) (N); Flag (C); made in house; host or cells: Sf9 insect cells
T1 sequence (P29597 880-1185): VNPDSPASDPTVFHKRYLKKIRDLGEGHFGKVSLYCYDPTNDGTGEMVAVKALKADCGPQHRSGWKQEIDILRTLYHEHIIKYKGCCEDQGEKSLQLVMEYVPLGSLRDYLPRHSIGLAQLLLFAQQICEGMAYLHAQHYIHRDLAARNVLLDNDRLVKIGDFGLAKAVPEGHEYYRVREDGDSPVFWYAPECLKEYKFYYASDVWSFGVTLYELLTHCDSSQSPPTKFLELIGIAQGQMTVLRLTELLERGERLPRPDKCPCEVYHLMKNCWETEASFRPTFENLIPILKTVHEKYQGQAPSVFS
Description: (§1) After 60 min incubation at room temperature, the reaction was quenched by addition of EDTA (final conc. 100 μM) and developed by addition of revelation reagents (final approximate concentrations: 30 mM HEPES pH 7.0, 0.06% BSA, 0.006% Tween-20, 0.24 M KF, 80 ng/mL PT66K (europium-labelled anti-phosphotyrosine antibody, cat #61T66KLB, Cisbio, Bedford, MA) and 3.12 μg/mL SAXL (Phycolink streptavidin-allophycocyanin acceptor, cat #PJ25S, Prozyme, San Leandro, CA)). The developed reaction was incubated in the dark either at 4°C overnight or at room temperature for ~1 h, then read with a time-resolved fluorescence detector (Rubystar, BMG Labtech) using a 337 nm laser for excitation and emission wavelengths of 620 nm and 665 nm. Within the linear range of the assay, this signal is directly related to phosphorylated product and was used to calculate IC50 values. Typically, seven-point inhibitor dilutions (5-fold; from 50 μM to 0.0032 μM) were used. IC50 values were calculated by fitting the following equation: […]
(§2) where [I] is total inhibitor concentration, Y is the percentage of activity (relative to that seen in no-inhibitor control) at a given inhibitor concentration, and Ymax is the maximum activity generated in the absence of inhibitor.

Jak1 = biological target: T2, Jak1 (Homo sapiens, UniProt P23458); test: trFRET kinase activity assay, Jak1; assay type: biochemical; settings: Jak1 (845–1142) GST fusion, 1 μM ATP, mean and standard error; read-out: IC50, inhibition of Jak1 enzyme activity
T2 construct: Jak1 (residues 845–1142) was expressed in Sf9 cells; GST; made in house; host or cells: Sf9 insect cells
Description: as §1, §2
(§3) Purified Jak2 and Jak3 were purchased from Upstate/Millipore (cat numbers #14–640 and #14–629). […]

Jak3 = biological target: T3, Jak3 (Homo sapiens, UniProt P52333); test: trFRET kinase activity assay, Jak3; assay type: biochemical; settings: 1 μM ATP, mean and standard error; read-out: IC50, inhibition of Jak3 enzyme activity
T3 construct: purchased Upstate/Millipore #14–629
T3 sequence (P52333 1-1124): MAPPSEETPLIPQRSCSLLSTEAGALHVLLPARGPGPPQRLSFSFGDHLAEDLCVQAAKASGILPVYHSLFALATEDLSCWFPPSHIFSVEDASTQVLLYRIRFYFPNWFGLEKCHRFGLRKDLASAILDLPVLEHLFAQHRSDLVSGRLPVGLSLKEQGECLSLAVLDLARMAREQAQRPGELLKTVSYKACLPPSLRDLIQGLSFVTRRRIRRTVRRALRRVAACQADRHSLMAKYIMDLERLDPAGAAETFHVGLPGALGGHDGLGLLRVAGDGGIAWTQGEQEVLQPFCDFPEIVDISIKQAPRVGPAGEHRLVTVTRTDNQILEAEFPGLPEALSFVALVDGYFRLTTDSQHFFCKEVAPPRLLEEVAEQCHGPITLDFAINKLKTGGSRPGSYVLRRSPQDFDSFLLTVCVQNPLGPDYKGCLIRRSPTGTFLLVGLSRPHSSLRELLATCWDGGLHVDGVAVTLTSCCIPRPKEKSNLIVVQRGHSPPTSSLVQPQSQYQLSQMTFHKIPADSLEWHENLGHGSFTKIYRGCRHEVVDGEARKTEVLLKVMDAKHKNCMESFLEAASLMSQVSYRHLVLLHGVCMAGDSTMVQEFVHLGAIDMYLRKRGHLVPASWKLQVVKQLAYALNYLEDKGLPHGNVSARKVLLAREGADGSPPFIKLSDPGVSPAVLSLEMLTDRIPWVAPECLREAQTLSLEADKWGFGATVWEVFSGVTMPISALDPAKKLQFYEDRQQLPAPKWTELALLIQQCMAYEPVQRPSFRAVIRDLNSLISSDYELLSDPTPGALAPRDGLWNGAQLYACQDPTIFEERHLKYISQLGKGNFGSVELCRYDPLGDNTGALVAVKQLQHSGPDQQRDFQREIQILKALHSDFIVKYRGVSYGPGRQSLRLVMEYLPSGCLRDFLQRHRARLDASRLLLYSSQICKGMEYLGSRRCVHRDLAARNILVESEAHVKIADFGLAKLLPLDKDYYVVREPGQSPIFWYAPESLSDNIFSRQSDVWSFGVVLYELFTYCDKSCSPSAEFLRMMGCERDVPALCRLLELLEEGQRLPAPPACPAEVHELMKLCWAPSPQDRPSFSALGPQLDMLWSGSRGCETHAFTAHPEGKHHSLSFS
Description: as §1, §2, §3

Jak2 = biological target: T4, Jak2 (Homo sapiens, UniProt O60674); test: trFRET kinase activity assay, Jak2; assay type: biochemical; settings: 1 μM ATP, mean and standard error; read-out: IC50, inhibition of Jak2 enzyme activity
T4 construct: purchased Upstate/Millipore #14–640
Description: as §1, §2, §3

thermolysin = biological target: T5, thermolysin (Bacillus thermoproteolyticus, UniProt P00800); test: Digestion of BSA control by thermolysin; assay type: biochemical; settings: BSA control digested by thermolysin in the same buffer
T5 sequence (P00800 233-548): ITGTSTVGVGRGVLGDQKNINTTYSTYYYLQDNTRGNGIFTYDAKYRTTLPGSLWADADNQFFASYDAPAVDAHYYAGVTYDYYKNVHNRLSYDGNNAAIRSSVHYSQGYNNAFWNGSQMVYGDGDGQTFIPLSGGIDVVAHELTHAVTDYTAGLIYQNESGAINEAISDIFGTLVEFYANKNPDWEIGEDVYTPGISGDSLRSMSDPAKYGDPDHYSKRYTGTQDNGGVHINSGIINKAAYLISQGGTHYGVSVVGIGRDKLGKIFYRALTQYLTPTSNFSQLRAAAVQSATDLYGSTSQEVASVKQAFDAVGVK

[1] = tested on: Mouse Tyk2 kinase domain (residues 870–1170; Asp1016Ala mutant); test: Partial proteolysis of Tyk2 kinase domain by thermolysin with and without ligand; settings: 30 μM compound, sum of ~27 and ~29 kDa peaks, 0 to 90 minutes, room temperature
Description: Mouse Tyk2 kinase domain (0.25 mg/mL, residues 870–1170; Asp1016Ala mutant) was incubated for 0 to 90 minutes with thermolysin (0.25 mg/mL) at room temperature in 50 mM HEPES pH 6.7, 150 mM NaCl, 5% glycerol, and 2.5 mM CaCl2 in the presence and absence of 30 μM Compound 2. EDTA (final conc 100 mM) was used as stop solution to quench the proteolysis reactions. Samples were separated by use of a Caliper LC90 system and the remaining substrate and product bands were quantitated. Intact (undigested) Tyk2 ran in this system at ~29 kDa. Addition of thermolysin yielded a partial digestion product of ~27 kDa (Additional file 1: Figure 1) within 5 minutes, which was unaffected by addition of Compound 2. Subsequent degradation products were strongly influenced by the presence of Compound 2 (Additional file 1: Figure S1). Therefore the sum of the intensities of the 29 and 27 kDa peaks was used as a measure of inhibitor-dependent resistance to thermolysin digestion. […]
In the absence of inhibitor, a 20 kDa fragment is generated after ~1-5 minutes and subsequently degraded. […] Quantitated values of Tyk2 peaks of ~27 and ~29 kDa during digestion with thermolysin, in the absence or presence of 30 μM Compound 2 were used to monitor overall degradation rates in Figure 2.

T2 sequence (P23458 845-1142, species assumed): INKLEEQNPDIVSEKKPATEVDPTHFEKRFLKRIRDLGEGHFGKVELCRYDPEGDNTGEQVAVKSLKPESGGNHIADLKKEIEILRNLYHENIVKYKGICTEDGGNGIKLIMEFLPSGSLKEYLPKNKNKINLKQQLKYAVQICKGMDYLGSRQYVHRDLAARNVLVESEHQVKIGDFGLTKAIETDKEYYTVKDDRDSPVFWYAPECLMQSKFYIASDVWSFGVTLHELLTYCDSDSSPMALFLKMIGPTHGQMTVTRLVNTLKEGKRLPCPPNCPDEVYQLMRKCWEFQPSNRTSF
T4 sequence (O60674 808-1132 limits assumed): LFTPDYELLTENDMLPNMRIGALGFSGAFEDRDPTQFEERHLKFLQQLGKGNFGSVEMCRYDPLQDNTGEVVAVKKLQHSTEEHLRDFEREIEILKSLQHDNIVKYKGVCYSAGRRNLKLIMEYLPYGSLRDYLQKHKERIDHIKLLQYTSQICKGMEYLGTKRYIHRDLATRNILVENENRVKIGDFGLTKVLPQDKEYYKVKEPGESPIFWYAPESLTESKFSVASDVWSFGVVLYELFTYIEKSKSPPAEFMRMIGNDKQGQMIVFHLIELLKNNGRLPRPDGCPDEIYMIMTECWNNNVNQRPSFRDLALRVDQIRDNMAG

Row | SMILES | IC50 (human Tyk2) | IC50 (Jak1) | IC50 (Jak3) | IC50 (Jak2) | inhibition of thermolysin protease activity (BSA digestion) (thermolysin) | reduction of the rate of degradation of the enzyme to smaller forms (<27 kDa) by thermolysin [1]
1 | O=C(Nc1n[nH]c2ccc(-c3ccc(NS(=O)(=O)c4cccc(Cl)c4)cc3)cc12)c1ccco1 [Compound 2, Furan-2-carboxylic acid {5-[4-(3-chloro-benzenesulfonylamino)-phenyl]-1 H-indazol-3-yl}amide] | < 3 nM | 10 ± 0.1 nM | 41 ± 3 nM | 4 ± 1 nM | not an inhibitor of thermolysin protease activity | 13 fold
2 | Nc1n[nH]c2ccc(-c3ccc(NS(=O)(=O)c4cccc(Cl)c4)cc3)cc12 [Compound 1, N-[4-(3-Amino-1H-indazol-5-yl)-phenyl]-3-chloro-benzenesulfonamide] | – | 5 ± 0.4 nM | 42 ± 1 nM | 7 ± 2 nM | – | –
